# Source: article PMC10914731, “Homo-BacPROTAC-induced degradation of ClpC1 as a strategy against drug-resistant mycobacteria” (Nature Communications, 2024)
# Where “and” joins values, the source holds several entries; their conditions need not be identical. Equal values may be shown once. Read-outs that look alike come from different tables or passages of the source.
# Legend:
# [1] = test system: Acinetobacter baumannii; assay: MIC ESKAPES panel, Acinetobacter baumannii; type: cell-based
# Procedure: (§1) Minimum inhibitory concentration (MIC) against ESKAPES panel of Gram positive and Gram negative pathogens (Enterococcus faecium, Staphylococcus aureus, Klebsiella pneumoniae, Acinetobacter baumannii, Pseudomonas aeruginosa, Enterobacter cloacae and Salmonella typhimurium [ESKAPES panel]) were determined at the FNDR by the standard broth dilution method [CLSI, M100]. […] Mueller Hinton broth (MHB) medium was used to grow ESKAPES panel strains. The individual cultures were added as 200 μL (inoculum of 3–7 × 10^5 cfu/ml) to the respective assay plates in each well to all columns, except the media control (200 μL of medium). […] The assay plates were incubated at 37 °C, and the results were noted on the 2nd day as turbidometric readout. The clear wells indicated inhibition of growth, while the turbid wells indicated uninhibited growth.
# [2] = test system: Mtb (moxR) FNDR-M1; assay: microbe, parasite or virus in culture; type: cell-based
# [3] = test system: Mtb H37Rv; assay: Minimum bactericidal concentration (MBC), Mtb H37Rv; type: cell-based, Mycobacterium tuberculosis; details: for MBC: Mycobacterium tuberculosis, H37RV
# [4] = molecular target: His6-tagged ClpC1-NTD substrate, M. smegmatis ClpC1P1P2 (UniProt A0R574+P9WPC9); assay: biochemical; type: biochemical
# [5] = test system: Klebsiella pneumoniae; assay: MIC ESKAPES panel, Klebsiella pneumoniae; type: cell-based
# Procedure: as §1
# [6] = test system: Mtb ATCC 35825; assay: microbe, parasite or virus in culture; type: cell-based
# [7] = test system: Mycobacterium abscessus; assay: microbe, parasite or virus in culture; type: cell-based
# [8] = in vivo; type: in vivo, BALB/cAnNCrl mice; details: male, BALB/cAnNCrl, mouse, in vivo, po
# Procedure: The in-life experimental procedures were conducted in strict compliance with German and European animal welfare legislation in an AAALAC-accredited facility. Male BALB/cAnNCrl mice (Charles River Laboratories Research Models and Services, 97633 Sulzfeld, Germany) were used. Animals were 9 weeks old at dosing with a body weight of 21.6–24.3 g. Animals were delivered free of pathogens according to FELASA recommendations with a health certificate provided by the breeder. Upon receipt, the state of health and sex was checked. Animals acclimatized for at least 5 days before the commencement of the in-life phase. During acclimation, animals were group-housed in individually ventilated cages, on birch wood granulate bedding with species-specific enrichment (nesting material, mouse igloo, gnawing wood). During experimental conduct, animals were housed in conventional cages with elevated grid floors. Grid floor was used to avoid contamination with test item material excreted via urine and feces and subsequent reuptake during fur grooming. No bedding and enrichment were provided except a cage divider, which can be used as a shelter. Animals always had unlimited access to food and water and received a pelleted, total pathogen-free maintenance diet and tap drinking water, sterilized by filter.
# On the day before dosing, test item(s) were suspended in kleptose (20% in WFI) under continuous stirring (3.0 mg/ml). Following 2 min vortexing and 1 h stirring, the formulation was sonicated at 60 °C for 30 min and stirred at ambient temperature overnight. Before dosing, the formulation was vortexed for 2 min followed by ultraturrax treatment for 2 min.
# Male BALB/cAnNCrl mice (n = 3 per test item and administration route) received a bolus dose of the formulated test item(s) (1 mg/kg iv, 30 mg/kg po) at t = 0 h, and whole blood samples were collected subsequently (35 µl at 0.1 (iv) / 0.25 (po), 0.5, 1, 2, 4, 6 h; 600 µl at sacrifice after 24 h). Animals were euthanized by exsanguination in deep isoflurane anesthesia. Whole blood samples were immediately stored on ice at about 4 °C. Plasma was separated by centrifugation at approximately 10,000 × g for 5 m at +4 °C. Centrifugation of each blood sample was started within 10 m after collection. A single aliquot of at least 15 µL of plasma was prepared and immediately stored at −20 ± 5 °C.
# Sample proteins were precipitated with ACN (1 + 12, v/v) containing internal standard, and supernatants analyzed by quantitative UPLC-MS/MS: Phenomenex Luna Omega C18, 2.1 × 50 mm, 1.6 µm, 40 °C, gradient between 10% - 90% ACN with 0.1% formic acid. LogD determination: Lipophilicity of the test items, expressed as chromLogD7.5, was assessed by measuring their chromatographic retention times on C18-material. The chromatographic retention versus logD7.5 values of a series of thirteen n-alkan-2-ones (2-butanone – 2-hexadecanone) served as lipophilicity calibration.
# [9] = Microsomal stability, human; type: in vitro ADME; details: human, microsomes, pH 7.5
# Method in brief: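 Clearance, expressed as % liver blood flow (%Qh), derived by the well-stirred model from first-order half-lives. Depletion monitored by HPLC-MS/MS in acetonitrile-stopped samples over time; 37 °C, NADPH 1 mM, microsomes 0.5 mg/ml, compound 1 µmol/l, Tris-HCl pH 7.5 with MgCl2.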
# [10] = test system: Pseudomonas aeruginosa; assay: MIC ESKAPES panel, Pseudomonas aeruginosa; type: cell-based
# Procedure: as §1
# [11] = Gram-Negative Bacteria, replicates 1-3, listed as 12 (UdSBI-4377)
# [12] = single well replicates, listed as 12 (UdSBI-4377)
# Sequence of His6-tagged ClpC1-NTD substrate, M. smegmatis ClpC1P1P2 (P9WPC9 1-156, looked up, natural form): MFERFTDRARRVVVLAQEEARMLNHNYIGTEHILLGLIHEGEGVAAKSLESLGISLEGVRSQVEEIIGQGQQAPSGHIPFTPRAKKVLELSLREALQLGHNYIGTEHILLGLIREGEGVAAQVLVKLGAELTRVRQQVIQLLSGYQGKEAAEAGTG
# Sequence of His6-tagged ClpC1-NTD substrate, M. smegmatis ClpC1P1P2 (A0R574 whole entry): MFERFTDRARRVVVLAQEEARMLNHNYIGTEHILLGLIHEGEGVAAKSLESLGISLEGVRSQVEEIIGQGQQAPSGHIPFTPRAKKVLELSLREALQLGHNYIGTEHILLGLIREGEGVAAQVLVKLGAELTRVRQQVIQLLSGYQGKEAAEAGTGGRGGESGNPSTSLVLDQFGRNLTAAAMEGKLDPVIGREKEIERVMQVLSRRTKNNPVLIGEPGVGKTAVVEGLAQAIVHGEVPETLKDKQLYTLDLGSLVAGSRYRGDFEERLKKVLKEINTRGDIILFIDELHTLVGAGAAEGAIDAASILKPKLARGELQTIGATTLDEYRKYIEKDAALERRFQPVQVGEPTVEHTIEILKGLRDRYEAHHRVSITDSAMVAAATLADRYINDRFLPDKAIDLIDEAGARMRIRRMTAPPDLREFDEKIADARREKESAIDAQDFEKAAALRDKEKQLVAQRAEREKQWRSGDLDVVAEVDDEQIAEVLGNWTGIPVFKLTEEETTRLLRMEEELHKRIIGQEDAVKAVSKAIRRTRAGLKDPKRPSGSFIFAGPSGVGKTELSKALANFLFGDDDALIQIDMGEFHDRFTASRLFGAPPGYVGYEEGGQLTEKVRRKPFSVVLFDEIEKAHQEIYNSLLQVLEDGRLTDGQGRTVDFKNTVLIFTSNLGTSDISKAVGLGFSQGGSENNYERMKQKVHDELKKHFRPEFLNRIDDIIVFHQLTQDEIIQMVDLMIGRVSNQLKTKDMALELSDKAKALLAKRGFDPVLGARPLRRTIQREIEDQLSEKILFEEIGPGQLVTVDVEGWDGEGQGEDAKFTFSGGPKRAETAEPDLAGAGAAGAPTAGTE
structure (smiles),measurement,setting,value
COC(c1ccccc1)C1NC(=O)C(C)NC(=O)C(CC(C)CO)N(C)C(=O)C(Cc2cn(C)c3ccccc23)NC(=O)C(Cc2cn(CCCCCn3cc(CC4NC(=O)C(CC(C)C)N(C)C(=O)C(C(C)C)NC(=O)C(C(OC)c5ccccc5)NC(=O)C(C)NC(=O)C(CC(C)CO)N(C)C(=O)C(Cc5cn(C)c6ccccc56)NC4=O)nn3)nn2)NC(=O)C(CC(C)C)N(C)C(=O)C(C(C)C)NC1=O (stereo not drawn) [Compound 12],MIC,"[1]; Gram negative, n = 3 well replicates, read-out: MIC Acinetobacter baumanii",> 50 µM
same,MIC,"[1]; Gram-Negative Bacteria, replicates 1-3, read-out: MIC Acinetobacter baumannii",> 50 µM and > 99 µg/mL
same,MIC,"[2]; M. tuberculosis FNDR-M1, single well replicates",0.195 µM
same,MIC,"[2]; Mycobacterium tuberculosis, M. tuberculosis FNDR-M1, single well replicates",0.195 µM
same,MIC,"[2]; Mycobacterium tuberculosis, Mtb (moxR) FNDR-M1, mean ± SD, n = 3 well replicates",0.2 µM
same,colony growth after replating (MBC assay),[3],did not form any colonies at concentrations at or above the MIC value
same,MBC,[3]; read-out: MBC (from Set 3) Mtb H37Rv,0.1 µM and 0.2 µg/mL
same,MBC,[3]; read-out: MBC Mtb H37Rv,0.1 µM and 0.2 µg/mL
same,DC50,"[4]; read-out: DC50, single measurements",10.3 µM and 9.3 µM and 5.3 µM and 8.3 µM and 7.6 µM
same,DC50,[4]; read-out: DC50 M.smegmatis ClpC1P1P2 Mean,8.4 µM
same,Dmax,[4]; read-out: DMax M.smegmatis ClpC1P1P2 Mean,81%
same,MIC,[5]; [11],>50 µM
same,MIC,"[5]; Klebsiella pneumoniae, Gram negative, n = 3 well replicates",> 50 µM
same,MIC,"[5]; Klebsiella pneumoniae, Gram-Negative Bacteria, replicates 1-3",> 99 µg/mL
same,MIC,"[6]; Mycobacterium tuberculosis, ATCC35825, mean, n = 2 well replicates",< 0.1 µM and < 0.2 µg/mL
same,MIC,"[6]; Mycobacterium tuberculosis, ATCC35825, single well replicates",< 0.19 µg/mL and < 0.1 µM
same,MIC,[6]; [12],<0.1 µM
same,MIC Mtb ATCC 35825,[6]; [12],<0.19 µg/mL
same,MIC (µg/ml) Mycobacterium abscessus,"[7]; Experiment 2, three replicate columns",>99.02 µg/mL
same,MIC,"[7]; Experiment 2, three replicate columns, read-out: MIC (µM) Mycobacterium abscessus",>50 µM
same,MIC,"[7]; Mycobacteroides abscessus, Experiment 1, read-out: MIC Mycobacterium abscessus",> 50 µM and > 99 µg/mL
same,MIC,"[7]; Mycobacteroides abscessus, Experiment 2, three replicate columns, read-out: MIC (µM) Mycobacterium abscessus",> 50 µM
same,MIC,"[7]; Mycobacteroides abscessus, Experiment 2, three replicate columns, read-out: MIC (µg/ml) Mycobacterium abscessus",> 99 µg/mL
same,MIC,"[7]; Mycobacteroides abscessus, mean ± SD, read-out: MIC Mycobacterium abscessus",> 50 µM
same,AUC0-inf/Dose,[8],62.6 h*nM/nmol/kg
same,AUC0-t/Dose,[8],45.5 h*nM/nmol/kg
same,BA,[8],0.7%
same,Cmax/Dose,[8],2.56 nM/nmol/kg
same,Microsomal Stability Human,[9],< 24 %Qh
same,Microsomal Stability Human QH,[9],<24.4%
same,MIC,[10]; [11],>50 µM
same,MIC,"[10]; Pseudomonas aeruginosa, Gram negative, n = 3 well replicates",> 50 µM
same,MIC,"[10]; Pseudomonas aeruginosa, Gram-Negative Bacteria, replicates 1-3",> 99 µg/mL
